Reference: patent publication US6737383B1, “Herbicidal oxadiazolidines” (priority 1999, dated 2004)

Experiments:
[1] = tested on: winter wheat; assay: Test E winter wheat; format: in vivo, Triticum aestivum; conditions: Preemergence
[2] = tested on: bedstraw; assay: Test B pre/postemergence bedstraw; format: in vivo, Galium aparine
Method in brief: (§1)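 Response is a visual 0-to-10 score relative to untreated plants, where 0 means no effect and 10 means complete control, taken twelve to sixteen days after application. Treatments went onto soil at planting and onto foliage of 1- to 4-leaf plants, using a surfactant-containing non-phytotoxic solvent.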

[3] = tested on: wild oat; assay: Test E wild oat; format: in vivo, Avena fatua; conditions: Preemergence
[4] = tested on: smallflower flatsedge; assay: Test B flood test smallflower flatsedge; format: in vivo, Cyperus difformis
Method in brief: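 Flood test on plants grown to the 2-leaf stage; treated plants kept in greenhouse twelve to sixteen days, then visually rated against controls on a 0 (no effect) to 10 (complete control) scale.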

[5] = tested on: Italian ryegrass; assay: Test E Italian ryegrass; format: in vivo, Lolium multiflorum; conditions: Preemergence
[6] = tested on: surinam grass; assay: Test B pre/postemergence surinam grass; format: in vivo, Brachiaria decumbens
Method in brief: as §1

[7] = tested on: winter wheat; assay: Test E winter wheat; format: in vivo, Triticum aestivum; conditions: Postemergence
Method in brief: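 Visual evaluation versus untreated controls after about 21 to 28 days in the greenhouse. Compound was in a surfactant-containing non-phytotoxic solvent; postemergence plants were treated at the 1- to 4-leaf stage, grown in a 60:40 sandy loam and potting mix blend.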

[8] = tested on: blackgrass; assay: Test B pre/postemergence blackgrass; format: in vivo, Alopecurus myosuroides
Method in brief: as §1

[9] = tested on: winter barley; assay: Test E winter barley; format: in vivo, Hordeum vulgare; conditions: Preemergence
[10] = tested on: blackgrass; assay: Test E blackgrass; format: in vivo, Alopecurus myosuroides; conditions: Preemergence
[11] = tested on: green foxtail; assay: Test E green foxtail; format: in vivo, Setaria viridis; conditions: Preemergence
[12] = Rate 500 g/ha, 0 to 100 scale (0 no effect, 100 complete control)
[13] = Rate 1000 g/ha, 0 to 100 scale, 0 no effect, 100 complete control
[14] = Preemergence, Rate 31 g/ha, visual rating, scale 0 to 10 (0 no effect, 10 complete control)
[15] = Preemergence, Rate 62 g/ha, scale of 0 to 10 where 0 is no effect and 10 is complete control
[16] = Preemergence, Rate 250 g/ha, scale of 0 to 10 where 0 is no effect and 10 is complete control
[17] = Rate 31 g/ha, Postemergence, scale 0 to 10
[18] = Rate 62 g/ha, Postemergence, scale 0 to 10 (0 no effect, 10 complete control)
[19] = Rate 125 g/ha, Postemergence, scale of 0 to 10 where 0 is no effect and 10 is complete control
[20] = Rate 125 g/ha, Preemergence, scale of 0 to 10 where 0 is no effect and 10 is complete control
[21] = Rate 250 g/ha, Postemergence, scale of 0 to 10 where 0 is no effect and 10 is complete control
[22] = Rate 62 g/ha, 0 to 100 scale, 0 no effect, 100 complete control
[23] = Rate 125 g/ha, 0 to 100 scale (0 no effect, 100 complete control)
[24] = Postemergence, Rate 62 g/ha, scale 0 to 10, 0 is no effect, 10 is complete control
[25] = Postemergence, Rate 250 g/ha, scale 0 to 10, 0 no effect, 10 complete control
[26] = Preemergence, Rate 62 g/ha, scale 0 to 10 (0 no effect, 10 complete control)
[27] = Preemergence, Rate 125 g/ha, scale 0 to 10 (0 no effect, 10 complete control)
[28] = Preemergence, Rate 500 g/ha, scale 0 to 10 (0 no effect, 10 complete control)
[29] = Rate 125 g/ha, Postemergence, scale 0 to 10, 0 no effect, 10 complete control

`CC(C)=CCn1c(=O)on(C(=O)N(c2ccc(F)cc2)C(C)C)c1=O` [Compound 288] was tested, and the “Wheat (winter) plant response rating (0 to 100 scale)” value ([1]; Rate 250 g/ha) was 40, the “Plant response rating, Wheat (winter)” value [1, 12] was 30 and the “Plant response rating, Wheat (winter)” value [1, 13] was 55. The “Bedstraw plant response rating” value [2, 14] was 0, the “Bedstraw plant response rating” value [2, 15] was 0 and the “Bedstraw plant response rating” value [2, 16] was 10. The “Bedstraw plant response rating” value [2, 17] was 0, the “Bedstraw plant response rating” value [2, 18] was 0 and the “Bedstraw plant response rating” value [2, 19] was 0. The “Bedstraw plant response rating” value [2, 20] was 2, the “Plant response rating, Bedstraw” value [2, 21] was 0 and the “Wild oat plant response rating (0 to 100 scale)” value ([3]; Rate 250 g/ha) was 20. For the same compound, the “Plant response rating, Wild oat” value [3, 12] was 30, the “Plant response rating, Wild oat” value [3, 13] was 50 and the “S. Flatsedge plant response rating” value ([4]; Rate 31 g/ha, Pre-emergence section (flood test species), scale 0 to 10) was 0. For the same compound, the “S. Flatsedge plant response rating” value ([4]; Rate 62 g/ha, headed Pre-emergence (flood test species), scale 0 to 10 (0 no effect, 10 complete control)) was 0, the “S. Flatsedge plant response rating” value ([4]; Rate 125 g/ha, Pre-emergence, flood test species, scale 0 to 10 where 0 is no effect and 10 is complete control) was 0 and the “S. Flatsedge plant response rating” value ([4]; Rate 250 g/ha, Pre-emergence, flood-test species, scale 0 to 10, 0 is no effect, 10 is complete control) was 0. The “I. Ryegrass plant response rating (0 to 100 scale)” value ([5]; Rate 250 g/ha) was 30, the “Plant response rating, I. Ryegrass” value [5, 12] was 50 and the “Plant response rating, I. Ryegrass” value [5, 13] was 60. For the same compound, the “B. signalgrass plant response rating” value [6, 14] was 0, the “B. signalgrass plant response rating” value [6, 15] was 0 and the “B. signalgrass plant response rating” value [6, 16] was 6. For the same compound, the “B. signalgrass plant response rating” value [6, 17] was 0, the “B. signalgrass plant response rating” value [6, 18] was 0 and the “B. signalgrass plant response rating” value [6, 19] was 0. For the same compound, the “B. signalgrass plant response rating” value [6, 20] was 4, the “Plant response rating, B. signalgrass” value [6, 21] was 0 and the “Plant response rating, Wheat (winter)” value ([7]; Rate 1000 g/ha, 0 to 100 scale where 0 is no effect and 100 is complete control) was 40. For the same compound, the “Wheat (winter) plant response rating” value ([7]; Rate 250 g/ha, 0 to 100 scale where 0 is no effect and 100 is complete control) was 35, the “Plant response rating, Wheat (winter)” value ([7]; Rate 500 g/ha, 0 to 100 scale, 0 is no effect, 100 is complete control) was 30 and the “Blackgrass plant response rating” value [8, 14] was 0. The “Blackgrass plant response rating” value [8, 15] was 0, the “Blackgrass plant response rating” value [8, 16] was 6 and the “Blackgrass plant response rating” value [8, 17] was 0. The “Blackgrass plant response rating” value [8, 18] was 0, the “Blackgrass plant response rating” value [8, 19] was 0 and the “Blackgrass plant response rating” value [8, 20] was 2. For the same compound, the “Plant response rating, Blackgrass” value [8, 21] was 2, the “Barley (winter) plant response rating (0 to 100 scale)” value ([9]; Rate 250 g/ha) was 0 and the “Plant response rating, Barley (winter)” value [9, 12] was 5. The “Plant response rating, Barley (winter)” value [9, 13] was 10, the “Blackgrass plant response rating (0 to 100 scale)” value ([10]; Rate 250 g/ha) was 50 and the “Plant response rating, Blackgrass” value [10, 12] was 50. The “Green foxtail plant response rating (0 to 100 scale)” value ([11]; Rate 250 g/ha) was 50, the “Plant response rating, Green foxtail” value [11, 12] was 60 and the “Plant response rating, Green foxtail” value [11, 13] was 100.
For `CC(C)N(C(=O)n1oc(=O)n(C2CCCCC2)c1=O)c1ccc(Cl)cc1` [Compound 111], the “Plant response rating, Wheat (winter)” value [1, 22] was 0, the “Plant response rating, Wheat (winter)” value [1, 23] was 0 and the “Plant response rating, Wheat (winter)” value ([1]; Rate 250 g/ha, 0 to 100 scale) was 0. For the same compound, the “Bedstraw plant response rating” value [2, 24] was 5, the “Bedstraw plant response rating” value [2, 25] was 7 and the “Bedstraw plant response rating” value [2, 26] was 0. For the same compound, the “Plant response rating, Bedstraw” value [2, 27] was 0, the “Plant response rating, Bedstraw” value [2, 16] was 0 and the “Bedstraw plant response rating” value [2, 28] was 3. For the same compound, the “Bedstraw plant response rating” value [2, 29] was 5, the “Plant response rating, Wild oat” value [3, 22] was 0 and the “Plant response rating, Wild oat” value [3, 23] was 0. The “S. Flatsedge plant response rating” value ([4]; Postemergence (flood test species), Rate 125 g/ha, scale of 0 to 10 where 0 is no effect and 10 is complete control) was 0, the “S. Flatsedge plant response rating” value ([4]; Pre-emergence, Rate 1000 g/ha, scale 0 to 10 (0 no effect, 10 complete control)) was 0 and the “S. Flatsedge plant response rating” value ([4]; Rate 62 g/ha, Postemergence section, flood test species, scale of 0 to 10 where 0 is no effect and 10 is complete control) was 0. For the same compound, the “Plant response rating, S. Flatsedge” value ([4]; Rate 250 g/ha, Postemergence (flood test), scale 0 to 10, 0 is no effect, 10 is complete control) was 0, the “S. Flatsedge plant response rating” value ([4]; Rate 250 g/ha, headed Pre-emergence (flood test species), scale 0 to 10 (0 no effect, 10 complete control)) was 0 and the “Plant response rating, S. Flatsedge” value ([4]; Rate 500 g/ha, headed Pre-emergence (flood test species), scale 0 to 10 (0 no effect, 10 complete control)) was 0. The “S. Flatsedge plant response rating” value ([4]; Rate 500 g/ha, listed under Postemergence (flood test species), scale 0 to 10, 0 no effect, 10 complete control) was 0, the “S. Flatsedge plant response rating” value ([4]; Rate 2000 g/ha, Pre-emergence (as headed), scale 0 to 10) was 0 and the “Plant response rating, I. Ryegrass” value [5, 22] was 0. For the same compound, the “Plant response rating, I. Ryegrass” value [5, 23] was 0, the “Plant response rating, I. Ryegrass” value ([5]; Rate 250 g/ha, 0 to 100 scale) was 0 and the “B. signalgrass plant response rating” value [6, 24] was 0. The “B. signalgrass plant response rating” value [6, 25] was 0, the “B. signalgrass plant response rating” value [6, 26] was 0 and the “Plant response rating, B. signalgrass” value [6, 27] was 1. The “Plant response rating, B. signalgrass” value [6, 16] was 1, the “B. signalgrass plant response rating” value [6, 28] was 4 and the “B. signalgrass plant response rating” value [6, 29] was 0. For the same compound, the “B. signalgrass plant response rating” value ([6]; Rate 500 g/ha, Postemergence, scale of 0 to 10 where 0 is no effect and 10 is complete control) was 0, the “Plant response rating, Wheat (winter)” value ([7]; Rate 62 g/ha, 0 to 100 scale) was 0 and the “Plant response rating, Wheat (winter)” value ([7]; Rate 125 g/ha, 0 to 100 scale) was 0. The “Plant response rating, Wheat (winter)” value ([7]; Rate 250 g/ha, 0 to 100 scale (0 no effect, 100 complete control)) was 0, the “Blackgrass plant response rating” value ([8]; Postemergence, Rate 125 g/ha, scale of 0 to 10 where 0 is no effect and 10 is complete control) was 3 and the “Blackgrass plant response rating” value [8, 25] was 5. The “Blackgrass plant response rating” value [8, 26] was 0, the “Plant response rating, Blackgrass” value [8, 27] was 0 and the “Plant response rating, Blackgrass” value [8, 16] was 2. For the same compound, the “Blackgrass plant response rating” value [8, 28] was 5, the “Blackgrass plant response rating” value ([8]; Rate 62 g/ha, Postemergence, scale of 0 to 10 where 0 is no effect and 10 is complete control) was 0 and the “Blackgrass plant response rating” value ([8]; Rate 500 g/ha, Postemergence, scale 0 to 10, 0 no effect, 10 complete control) was 7. The “Plant response rating, Barley (winter)” value [9, 22] was 0, the “Plant response rating, Barley (winter)” value [9, 23] was 0 and the “Plant response rating, Barley (winter)” value ([9]; Rate 250 g/ha, 0 to 100 scale) was 0. The “Plant response rating, Blackgrass” value [10, 22] was 0, the “Plant response rating, Blackgrass” value [10, 23] was 0 and the “Plant response rating, Blackgrass” value ([10]; Rate 250 g/ha, 0 to 100 scale) was 0. The “Plant response rating, Green foxtail” value [11, 22] was 0, the “Plant response rating, Green foxtail” value [11, 23] was 0 and the “Plant response rating, Green foxtail” value ([11]; Rate 250 g/ha, 0 to 100 scale) was 10.
